Assay results reported in ChEMBL document CHEMBL2407067, “Pyridone-conjugated monobactam antibiotics with gram-negative activity” (J Med Chem, 2013).
Converted amounts (≈) assume the structure as drawn. Values belong to the molecule of their own block, whether it stands above or below them.

Experiments:
[1] = test system: Pseudomonas aeruginosa; experiment: Antibacterial activity against PiuA/FptA receptor-deficient Pseudomonas aeruginosa PAO1 in iron-chelated Muller-Hinton broth medium by broth microdilution method; type: functional
[2] = test system: Pseudomonas aeruginosa; experiment: Antibacterial activity against PiuA receptor-deficient Pseudomonas aeruginosa PAO1 in Muller-Hinton broth medium by broth microdilution method; type: functional
[3] = Fraction unbound in human plasma; type: ADME, cell-free
[4] = test system: Pseudomonas aeruginosa; experiment: Antibacterial activity against PiuA/FpvA receptor-deficient Pseudomonas aeruginosa PAO1 in Muller-Hinton broth medium by broth microdilution method; type: functional
[5] = Plasma clearance in Wistar Han rat at 1 mg/kg, iv by LC/MS/MS analysis; type: ADME, organism-based; parameters: dose 1 mg/kg, route intravenous
[6] = test system: Rattus norvegicus; experiment: Intrinsic clearance in Wistar Han rat at 1 mg/kg, iv by LC/MS/MS analysis; type: ADME, organism-based; parameters: dose 1 mg/kg, route intravenous; conditions: in vivo
[7] = test system: Pseudomonas aeruginosa; experiment: Antibacterial activity against FpvA receptor-deficient Pseudomonas aeruginosa PAO1 in iron-chelated Muller-Hinton broth medium by broth microdilution method; type: functional
[8] = Inhibition of PBP1a in Pseudomonas aeruginosa ATCC 27853 after 20 mins by fluorescence assay
[9] = Fraction unbound in rat plasma; type: ADME, cell-free
[10] = test system: Pseudomonas aeruginosa; experiment: Antibacterial activity against Pseudomonas aeruginosa expressing metallo-beta-lactamase by broth microdilution method; type: functional
[11] = test system: Pseudomonas aeruginosa; experiment: Antibacterial activity against FpvA receptor-deficient Pseudomonas aeruginosa PAO1 in Muller-Hinton broth medium by broth microdilution method; type: functional
[12] = test system: Pseudomonas aeruginosa; experiment: Antibacterial activity against PirA receptor-deficient Pseudomonas aeruginosa PAO1 in iron-chelated Muller-Hinton broth medium by broth microdilution method; type: functional
[13] = test system: Klebsiella pneumoniae; experiment: Antibacterial activity against Klebsiella pneumoniae 1000-02 by broth microdilution method; type: functional
[14] = test system: Pseudomonas aeruginosa; experiment: Ratio of MIC for PiuA/PirA receptor-deficient Pseudomonas aeruginosa PAO1 to MIC for Pseudomonas aeruginosa PAO1 in Muller-Hinton broth medium by broth microdilution method; type: functional
[15] = Inhibition of PBP3 in Pseudomonas aeruginosa ATCC 27853 after 20 mins by fluorescence assay
[16] = test system: Klebsiella pneumoniae; experiment: Antibacterial activity against Klebsiella pneumoniae expressing KPC by broth microdilution method; type: functional
[17] = test system: Pseudomonas aeruginosa; experiment: Antibacterial activity against PiuA/PirA receptor-deficient Pseudomonas aeruginosa PAO1 in Muller-Hinton broth medium by broth microdilution method; type: functional
[18] = test system: Acinetobacter sp.; experiment: Antibacterial activity against Acinetobacter spp. by broth microdilution method; type: functional
[19] = test system: Escherichia coli; experiment: Antibacterial activity against Escherichia coli expressing ESBL by broth microdilution method; type: functional
[20] = test system: Klebsiella pneumoniae; experiment: Antibacterial activity against Klebsiella pneumoniae expressing ESBL by broth microdilution method; type: functional
[21] = test system: Escherichia coli; experiment: Antibacterial activity against Escherichia coli expressing CTX-M by broth microdilution method; type: functional
[22] = test system: Pseudomonas aeruginosa; experiment: Antibacterial activity against Pseudomonas aeruginosa from cystic fibrosis patients by broth microdilution method; type: functional
[23] = test system: Pseudomonas aeruginosa; experiment: Ratio of MIC for PiuA/PirA receptor-deficient Pseudomonas aeruginosa PAO1 to MIC for Pseudomonas aeruginosa PAO1 in iron-chelated Muller-Hinton broth medium by broth microdilution method; type: functional
[24] = test system: Pseudomonas aeruginosa; experiment: Antibacterial activity against FptA receptor-deficient Pseudomonas aeruginosa PAO1 in iron-chelated Muller-Hinton broth medium by broth microdilution method; type: functional
[25] = test system: Pseudomonas aeruginosa; experiment: microbe, parasite or virus in culture; conditions: 1091-05
Description: Antibacterial activity against Pseudomonas aeruginosa 1091-05 by broth microdilution method

[26] = test system: Pseudomonas aeruginosa; experiment: Antibacterial activity against PirA receptor-deficient Pseudomonas aeruginosa PAO1 in Muller-Hinton broth medium by broth microdilution method; type: functional
[27] = test system: Pseudomonas aeruginosa; experiment: Antibacterial activity against FptA receptor-deficient Pseudomonas aeruginosa PAO1 in Muller-Hinton broth medium by broth microdilution method; type: functional
[28] = test system: Pseudomonas aeruginosa; experiment: Antibacterial activity against PiuA/FptA receptor-deficient Pseudomonas aeruginosa PAO1 in Muller-Hinton broth medium by broth microdilution method; type: functional
[29] = test system: Pseudomonas aeruginosa; experiment: Ratio of MIC for PiuA receptor-deficient Pseudomonas aeruginosa PAO1 to MIC for Pseudomonas aeruginosa PAO1 in Muller-Hinton broth medium by broth microdilution method; type: functional
[30] = test system: Acinetobacter baumannii; experiment: Antibacterial activity against Acinetobacter baumannii AB-3167 by broth microdilution method; type: functional
[31] = test system: Pseudomonas aeruginosa; experiment: Antibacterial activity against PiuA receptor-deficient Pseudomonas aeruginosa PAO1 in iron-chelated Muller-Hinton broth medium by broth microdilution method; type: functional
[32] = test system: Pseudomonas aeruginosa; experiment: Antibacterial activity against PiuA/FpvA receptor-deficient Pseudomonas aeruginosa PAO1 in iron-chelated Muller-Hinton broth medium by broth microdilution method; type: functional
[33] = Inhibition of PBP1b in Pseudomonas aeruginosa ATCC 27853 after 20 mins by fluorescence assay
[34] = test system: Klebsiella pneumoniae; experiment: Antibacterial activity against Klebsiella pneumoniae expressing defined beta-lactamase by broth microdilution method; type: functional
[35] = Inhibition of PBP2 in Pseudomonas aeruginosa ATCC 27853 after 20 mins by fluorescence assay
[36] = test system: Pseudomonas aeruginosa; experiment: Antibacterial activity against Pseudomonas aeruginosa 1042-06 by broth microdilution method; type: functional
[37] = Fraction unbound in mouse plasma; type: ADME, cell-free
[38] = test system: Klebsiella pneumoniae; experiment: Antibacterial activity against Klebsiella pneumoniae 1487-07 by broth microdilution method; type: functional
[39] = test system: Escherichia coli; experiment: Antibacterial activity against Escherichia coli expressing defined beta-lactamase by broth microdilution method; type: functional
[40] = test system: Pseudomonas aeruginosa; experiment: Antibacterial activity against PiuA/PirA receptor-deficient Pseudomonas aeruginosa PAO1 in iron-chelated Muller-Hinton broth medium by broth microdilution method; type: functional
[41] = test system: Pseudomonas aeruginosa; experiment: Antibacterial activity against Pseudomonas aeruginosa PAO1 in Muller-Hinton broth medium by broth microdilution method; type: functional
[42] = test system: Pseudomonas aeruginosa; experiment: Antibacterial activity against Pseudomonas aeruginosa PAO1 in iron-chelated Muller-Hinton broth medium by broth microdilution method; type: functional

Structure (SMILES): CC(C)(O/N=C(\C(=O)N[C@@H]1C(=O)N(S(=O)(=O)[O-])[C@@H]1CNC(=O)c1cc(=O)c(O)cn1O)c1csc(N)n1)C(=O)[O-].[Na+].[Na+]
MIC [1]: 0.5 µg/mL
MIC [2]: 8 µg/mL
MIC [4]: 16 µg/mL
MIC [7]: 0.5 µg/mL
MIC [11]: 1 µg/mL
MIC [12]: 0.5 µg/mL
MIC [13]: < 0.06 µg/mL
Ratio [14]: >=64
MIC [17]: 64 µg/mL
Ratio [23]: >=64
MIC [24]: 0.5 µg/mL
MIC [25]: 0.5 µg/mL
MIC [26]: 0.5 µg/mL
MIC [27]: 0.5 µg/mL
MIC [28]: 8 µg/mL
Ratio [29]: 16
MIC [30]: 0.5 µg/mL
MIC [31]: 0.5 µg/mL
MIC [42]: 0.5 µg/mL
MIC [32]: 1 µg/mL
MIC [36]: 0.5 µg/mL
MIC [38]: 0.25 µg/mL
MIC [40]: 64 µg/mL
MIC [41]: 0.5 µg/mL

Structure (SMILES): CC(C)(O/N=C(\C(=O)N[C@@H]1C(=O)N(S(=O)(=O)O)[C@@H]1CNC(=O)c1cc(=O)c(O)cn1-c1ccccc1)c1csc(N)n1)C(=O)O
IC50 [8]: 0.58 µM
MIC [13]: 1 µg/mL (≈ 1.51 µM)
IC50 [15]: 0.14 µM
MIC [25]: 32 µg/mL (≈ 48.2 µM)
MIC [30]: 32 µg/mL (≈ 48.2 µM)
IC50 [33]: 7.4 µM
IC50 [35]: > 300 µM
MIC [36]: 32 µg/mL (≈ 48.2 µM)
MIC [38]: 16 µg/mL (≈ 24.1 µM)

Structure (SMILES): CC(C)(O/N=C(\C(=O)N[C@@H]1C(=O)N(S(=O)(=O)O)[C@@H]1CNC(=O)NCc1cc(=O)c(O)cn1O)c1csc(N)n1)C(=O)NO
IC50 [8]: 3.02 µM
MIC [13]: 8 µg/mL (≈ 12.4 µM)
IC50 [15]: 0.27 µM
MIC [25]: 1 µg/mL (≈ 1.54 µM)
MIC [30]: 1 µg/mL (≈ 1.54 µM)
IC50 [33]: 11.1 µM
IC50 [35]: > 300 µM
MIC [36]: > 64 µg/mL
MIC [38]: 16 µg/mL (≈ 24.7 µM)

Now those with a lower MIC [25], led by results:

MIC [1]: 0.5 µg/mL (≈ 0.79 µM)
MIC [2]: 8 µg/mL (≈ 12.6 µM)
fraction unbound [3]: 1
MIC [4]: 8 µg/mL (≈ 12.6 µM)
clearance [5]: 8.4 mL/min/kg
CL [6]: 10 mL/min/kg
MIC [7]: 0.06 µg/mL (≈ 0.0948 µM)
IC50 [8]: 0.62 µM
fraction unbound [9]: 0.91
MIC50 [10]: 0.25 µg/mL (≈ 0.395 µM)
MIC90 [10]: 1 µg/mL (≈ 1.58 µM)
MIC [11]: 0.25 µg/mL (≈ 0.395 µM)
MIC [12]: 0.25 µg/mL (≈ 0.395 µM)
MIC [13]: 0.25 µg/mL (≈ 0.395 µM)
IC50 [15]: 0.054 µM
MIC50 [16]: 4 µg/mL (≈ 6.32 µM)
MIC90 [16]: 16 µg/mL (≈ 25.3 µM)
MIC [17]: 32 µg/mL (≈ 50.6 µM)
MIC50 [18]: 8 µg/mL (≈ 12.6 µM)
MIC90 [18]: > 64 µg/mL
MIC50 [19]: 0.25 µg/mL (≈ 0.395 µM)
MIC90 [19]: 2 µg/mL (≈ 3.16 µM)
MIC90 [20]: 1 µg/mL (≈ 1.58 µM)
MIC50 [21]: 0.5 µg/mL (≈ 0.79 µM)
MIC90 [21]: 1 µg/mL (≈ 1.58 µM)
MIC50 [22]: 0.25 µg/mL (≈ 0.395 µM)
MIC90 [22]: 4 µg/mL (≈ 6.32 µM)
MIC [24]: 0.25 µg/mL (≈ 0.395 µM)
MIC [25]: 0.25 µg/mL (≈ 0.395 µM)
MIC [26]: 0.25 µg/mL (≈ 0.395 µM)
MIC [27]: 0.25 µg/mL (≈ 0.395 µM)
MIC [28]: 8 µg/mL (≈ 12.6 µM)
MIC [30]: 0.25 µg/mL (≈ 0.395 µM)
MIC [31]: 0.5 µg/mL (≈ 0.79 µM)
MIC [32]: 0.25 µg/mL (≈ 0.395 µM)
IC50 [33]: 1.67 µM
MIC50 [34]: 0.5 µg/mL (≈ 0.79 µM)
MIC90 [34]: 16 µg/mL (≈ 25.3 µM)
IC50 [35]: > 300 µM
MIC [36]: 2 µg/mL (≈ 3.16 µM)
fraction unbound [37]: 0.91
MIC [38]: 2 µg/mL (≈ 3.16 µM)
MIC50 [39]: 0.125 µg/mL (≈ 0.198 µM)
MIC90 [39]: 1 µg/mL (≈ 1.58 µM)
MIC [40]: 32 µg/mL (≈ 50.6 µM)
MIC [41]: 0.25 µg/mL (≈ 0.395 µM)
Structure (SMILES): CC(C)(O/N=C(\C(=O)N[C@@H]1C(=O)N(S(=O)(=O)O)[C@@H]1CNC(=O)NCc1cc(=O)c(O)cn1O)c1csc(N)n1)C(=O)O
Ratio [14]: >=64
Ratio [23]: >=64
Ratio [29]: 32

fraction unbound [3]: 0.5
clearance [5]: 31.3 mL/min/kg
CL [6]: 94 mL/min/kg
fraction unbound [9]: 0.6
MIC [25]: 0.25 µg/mL (≈ 0.372 µM)
MIC [30]: 0.25 µg/mL (≈ 0.372 µM)
MIC [36]: 1 µg/mL (≈ 1.49 µM)
fraction unbound [37]: 0.8
Structure (SMILES): CC(C)(O/N=C(\C(=O)N[C@@H]1C(=O)N(S(=O)(=O)O)[C@@H]1Cn1cc(COCc2cc(=O)c(O)cn2O)nn1)c1csc(N)n1)C(=O)O
